Measurements as given in patent publication US11395822B2, “Methods for treating Huntington's disease” (PTC Therapeutics, Inc., priority 2017, dated 2022).

System: Endogenous Huntingtin Protein
Test: Endogenous Huntingtin Protein Assay (ELISA-based MSD electrochemiluminescence)
Format: cell-based
Details: MSD plates coated with MW1 (expanded polyglutamine) or MAB2166 capture antibody
Description: Compounds of Formula (I) were tested using the Meso Scale Discovery (MSD) Assay provided in International Application No. PCT/US2016/066042, filed on Dec. 11, 2016 and claiming priority to U.S. Provisional Application U.S. 62/265,652 filed on Dec. 10, 2015, and published as International Publication No. WO 2017/100726 on Jun. 15, 2017, the entire contents of which are incorporated herein by reference.
The Endogenous Huntingtin Protein assay used in Example 1 was developed using the ELISA-based MSD electrochemiluminescence assay platform.
Endogenous Huntingtin Protein Assay
Meso Scale Discovery (MSD) 96-well or 384-well plates were coated overnight at 4° C. with MW1 (expanded polyglutamine) or MAB2166 monoclonal antibody (for capture) at a concentration of 1 μg/mL in PBS (30 μL per well). Plates were then washed three times with […] wash buffer (0.05% Tween-20 in PBS) and blocked (100 μL blocking buffer; 5% BSA in PBS) for 4-5 hours at room temperature with rotational shaking and then washed three times with wash buffer.
Samples (25 μL) were transferred to the antibody-coated MSD plate and incubated overnight at 4° C. After removal of the lysates, the plate was washed three times with wash buffer, and 25 μL of #5656S (Cell signaling; rabbit monoclonal) secondary antibody (diluted to 0.25 μg/mL in 0.05% Tween-20 in blocking buffer) was added to each well and incubated with shaking for 1 Hour at room temperature. Following incubation with the secondary antibody, the wells were rinsed with wash buffer after which 25 μL of goat anti-rabbit SULFO TAG secondary detection antibody (required aspect of the MSD system) (diluted to 0.25 μg/mL in 0.05% Tween-20 in blocking buffer) was added to each well and incubated with shaking for 1 hour at room temperature. After rinsing three times with wash buffer, 150 μL of read buffer T with surfactant (MSD) were added to each empty well, and the plate was imaged on a SI 6000 imager (MSD) according to manufacturers' instructions provided for 96- or 384-well plates.

| IC50 [nM] | SMILES |
| --- | --- |
| ≤ 100 | Cc1cn2nc(-c3cc(=O)n4cc(N5CCN[C@H](C)C5)ccc4n3)cc(C)c2n1 [Compound 886, (R)-2-(2,8-dimethylimidazo[1,2-b]pyridazin-6-yl)-7-(3-methylpiperazin-1-yl)-4H-pyrido[1,2-a]pyrimidin-4-one] |
| 100 to 500 | Cc1cn2nc(-c3cc(=O)n4cc(N5CCNC(C)(C)C5)ccc4n3)cc(C)c2n1 [Compound 899, 2-(2,8-dimethylimidazo[1,2-b]pyridazin-6-yl)-7-(3,3-dimethylpiperazin-1-yl)-4H-pyrido[1,2-a]pyrimidin-4-one] |
| 1000 to 3000 | Cc1cn2nc(-c3cc(=O)n4cc(N5CCNC6(CC6)C5)cc(C)c4n3)cc(C)c2n1 [Compound 905, 2-(2,8-dimethylimidazo[1,2-b]pyridazin-6-yl)-9-methyl-7-(4,7-diazaspiro[2.5]octan-7-yl)-4H-pyrido[1,2-a]pyrimidin-4-one] |
